Experimental data from patent publication US12385008B2, “Method for producing retinal tissue” (SUMITOMO PHARMA CO., LTD., priority 2015, dated 2025).

Legend:
[1] = tested on: human iPS cells (1231A3 strain); test: Microscopic observation of collapse of cell aggregates from human iPS cells (Example 2); type: cell-based; conditions: 10 days after start of suspension culture, FIG. 2
Method: (§1) iPS cells derived from human peripheral blood derived-mononuclear cells established from ePMBC (registered trade mark) of Cellular Technology Limited (1231A3 strain, Kyoto University) were used. Undifferentiated maintenance culture of these iPS cells under feeder cell-free conditions was performed according to the method described in “Nakagawa, M. et. al., Sci. Rep. 2014 Jan. 8; 4: 3594”. As the medium, “StemFit (registered trade mark)” AK03 medium (Ajinomoto Co., Inc.) was used and iMatrix-511 (Nippi) was used as a culture substrate.
Production of retinal tissue including a step of culturing in a medium containing an MEK inhibitor, a PKC inhibitor or a Sonic hedgehog signal transduction pathway activating substance was performed as follows. Human iPS cells under culture for maintaining an undifferentiated state were treated with 0.5×TrypLE select (mixture of equal amounts of TrypLE select (Life Technologies) and 0.5 mM EDTA/PBS(−)), scraped using a cell scraper, dispersed to single cells by pipetting, seeded in a 6-well culture plate coated with iMatrix-511 (0.5 μg/cm^2) at 1.2×10^4 cells per 1 well, and cultured in a StemFit medium containing Y-27632 (Wako Pure Chemical Industries, Ltd.) (final concentration 10 μM) as a ROCK inhibitor under 37° C., 5% CO2 conditions. At 2 days after the seeding, PD0325901 (SIGMA) (final concentration 1 μM) as an MEK inhibitor and Go6983 (SIGMA) (final concentration 2 μM) as a PKC inhibitor were added and the mixture was cultured for 5 days, or at 6 days after seeding, PD0325901 (final concentration 1 μM) was added and the mixture was cultured for […] (completion of step 1). The cells cultured in the medium containing the above-mentioned inhibitors were treated with 0.5×TrypLE select, scraped using a cell scraper, dispersed to single cells by pipetting, seeded in a 96-well culture plate (PrimeSurface 96 V-BOTTOM plate, SUMITOMO BAKELITE CO., LTD.) at 1.0×10^4 cells per 1 well, and cultured in 100 μl of a gfCDM+KSR medium [45% IMDM (Life Technologies), 45% F12 (Life Technologies), 10% KSR (Life Technologies), 1% Chemically defined lipid concentrate (Life Technologies), 450 μM 1-Thioglycerol (SIGMA)] supplemented with Y-27632 (final concentration 20 μM) (second step SAG(−)) or seeded in a gfCDM+KSR medium supplemented with SAG (Enzo) (final concentration 30 nM) (second step SAG(+)) and cultured in suspension under 37° C., 5% CO2 conditions. Cell aggregates were formed by 2 days after the start of the suspension culture (completion of step 2). […]

[2] = tested on: human iPS cells (1231A3 strain); test: Pax6 and Chx10 immunostaining of cell aggregates from human iPS cells (Example 2); type: cell-based; conditions: first step MEK inhibitor ± PKC inhibitor; second step with 30 nM SAG; BMP4 1.5 nM from day 3; 22 days after start of suspension culture; FIG. 3
Method: as §1
Production of retinal tissue including a step of culturing in a medium containing an MEK inhibitor, a PKC inhibitor or a Sonic hedgehog signal transduction pathway activating substance was performed as follows. Human iPS cells under culture for maintaining an undifferentiated state were treated with 0.5×TrypLE select (mixture of equal amounts of TrypLE select (Life Technologies) and 0.5 mM EDTA/PBS(−)), scraped using a cell scraper, dispersed to single cells by pipetting, seeded in a 6-well culture plate coated with iMatrix-511 (0.5 μg/cm^2) at 1.2×10^4 cells per 1 well, and cultured in a StemFit medium containing Y-27632 (Wako Pure Chemical Industries, Ltd.) (final concentration 10 μM) as a ROCK inhibitor under 37° C., 5% CO2 conditions. […]

| Compound | collapse of aggregates ([1]; 1-day treatment in first step (1 μM), second step SAG(+) (30 nM SAG)) | collapse of aggregates ([1]; 1-day treatment in first step (1 μM), second step SAG(−)) | collapse of aggregates ([1]; 5-day treatment in first step (PD0325901 1 μM, Go6983 2 μM), irrespective of presence or absence of SAG in second step) | Pax6, Chx10 (retinal progenitor cell markers) co-positive cells in cell aggregates [2] | collapse of aggregates ([1]; non-treatment in first step, second step SAG(+) (30 nM SAG)) |
| --- | --- | --- | --- | --- | --- |
| O=C(NOC[C@H](O)CO)c1ccc(F)c(F)c1Nc1ccc(I)cc1F [PD0325901] | collapse of aggregates was hardly observed | collapse of aggregates was observed | Collapse of aggregates was not observed | Pax6, Chx10 co-positive cells were confirmed | – |
| CNC1CCC(N(Cc2cccc(-c3ccncc3)c2)C(=O)c2sc3ccccc3c2Cl)CC1 (centres unmarked) [SAG, N-methyl-N′-(3-pyridinylbenzyl)-N′-(3-chlorobenzo[b]thiophene-2-carbonyl)-1,4-diaminocyclohexane] | – | – | – | – | collapse of aggregates was hardly observed |
